Values of other authors in PMC4734747 (Journal of nuclear medicine : official publication, Society …, 2013).

Tests used:
[1] = system: P-gp at the human BBB; conditions: brain, humans, no P-gp inhibition
[2] = system: P-gp at the human BBB; conditions: tariquidar 6 mg/kg; not necessarily the maximal increase
[3] = system: P-gp at the BBB; conditions: brain, macaques, no P-gp inhibition
[4] = system: P-gp; conditions: rodents; ref 19 (Verbeek et al.)

SMILES | mean baseline K1 [1] | increase in the brain distribution (reported by K1) after P-gp inhibition [2] | mean baseline K1 [3] | affinity to P-gp relative to verapamil [4]
CNC(=O)C(CCN1CCC(O)(c2ccc(Cl)cc2)CC1)(c1ccccc1)c1ccccc1 [dLOP, N-desmethyl-loperamide] | 0.015 mL/min/g | 4 fold | 0.04 mL/min/g | –
CNCCCC(C#N)(c1ccc(OC)c(OC)c1)C(C)C (stereo not shown) [D617] | – | – | – | lower affinity to P-gp than does verapamil
